Source: ChEMBL document CHEMBL5532758, “Deuterium labeling improves the therapeutic index of 3,3'-diselenodipropionic acid as an anticancer agent: insights from redox reactions” (RSC Med Chem, 2024)
Calls of active or inactive are those of the source. The rule behind the calls is not given here.

How the values were obtained:
[1] = Therapeutic index, ratio of IC50 for cytotoxicity against human WI-38 cells to IC50 for antiproliferative activity against human A549 cells by MTT assay; format: toxicity, cell-based; conditions: WI-38 cells versus A549 cells, read-out: Ratio IC50
[2] = Increase in TxrR activity in human WI-38 cells at 10 uM incubated for 24 hrs relative to control; format: functional
[3] = Cytotoxicity against human Intestine 407 cells assessed as inhibition of cell proliferation incubated for 48 hrs by MTT assay; format: toxicity, cell-based
[4] = Therapeutic index, ratio of IC50 for cytotoxicity against human MCF10A cells to IC50 for antiproliferative activity against human NCI-H1975 cells by MTT assay; format: toxicity, cell-based; conditions: MCF10A cells versus NCI-H1975 cells, read-out: Ratio IC50
[5] = test system: GST; experiment: Reduction in intracellular activity of GST in human WI-38 cells at 150 uM incubated for 24 hrs relative to control; format: toxicity, cell-based
[6] = Cytotoxicity against human WI-38 cells assessed as inhibition of cell proliferation incubated for 48 hrs by MTT assay; format: toxicity, cell-based
[7] = test system: A549; experiment: Anti-clonogenic activity against human A549 cells assessed as reduction in size and number of surviving clones incubated for 7 days by crystal violet staining method; format: functional, cell-based; conditions: A549, 168 h
[8] = test system: NCI-H1975; experiment: Antiproliferative activity against human NCI-H1975 cells assessed as inhibition of cell proliferation incubated for 48 hrs by MTT assay; format: functional, cell-based; conditions: NCI-H1975, 48 h
[9] = test system: WI-38; experiment: Radioprotective activity against human WI-38 cells assessed as recovery of radiation-induced decrease in GPx activity at 10 uM pretreated for 24 hrs followed by irradiation with gamma radiation for 24 hrs; format: functional, cell-based; conditions: time 48.0 hrs
[10] = Upregulation of TrxR1 mRNA expression in human WI-38 cells at 10 uM incubated for 24 hrs by real-time PCR analysis relative to control; format: functional
[11] = Therapeutic index, ratio of IC50 for cytotoxicity against human WI-26 AV4 cells to IC50 for antiproliferative activity against human NCI-H1975 cells by MTT assay; format: toxicity, cell-based; conditions: WI-26 AV4 cells versus NCI-H1975 cells, read-out: Ratio IC50
[12] = Drug reactivity with trichloromethyl peroxyl radical (CCl3O2.) assessed as rate constant by ABTS2- based competition assay; format: physicochemical
[13] = test system: WI-38; experiment: Cytotoxicity against human WI-38 cells assessed as reduction in size and number of surviving clones incubated for 7 days by crystal violet staining method; format: toxicity, cell-based
[14] = Upregulation of GPx1 mRNA expression in human WI-38 cells at 10 uM incubated for 24 hrs by real-time PCR analysis relative to control; format: functional
[15] = Therapeutic index, ratio of IC50 for cytotoxicity against human WI-38 cells to IC50 for antiproliferative activity against human NCI-H1975 cells by MTT assay; format: toxicity, cell-based; conditions: WI-38 cells versus NCI-H1975 cells, read-out: Ratio IC50
[16] = test system: WI-38; experiment: Upregulation of GPx1 mRNA expression in human WI-38 cells at 10 uM incubated for 6 hrs by real-time PCR analysis; format: functional, cell-based
[17] = Therapeutic index, ratio of IC50 for cytotoxicity against human MCF-10A cells to IC50 for antiproliferative activity against human A549 cells by MTT assay; format: toxicity, cell-based; conditions: MCF-10A cells versus A549 cells, read-out: Ratio IC50
[18] = Upregulation of TrxR1 mRNA expression in human WI-38 cells at 10 uM incubated for 6 hrs by real-time PCR analysis relative to control; format: functional
[19] = Therapeutic index, ratio of IC50 for cytotoxicity against human Intestine 407 cells to IC50 for antiproliferative activity against human A549 cells by MTT assay; format: toxicity, cell-based; conditions: Intestine 407 cells versus A549 cells, read-out: Ratio IC50
[20] = test system: NCI-H3122; experiment: Antiproliferative activity against human NCI-H3122 cells assessed as inhibition of cell proliferation incubated for 48 hrs by MTT assay; format: functional, cell-based; conditions: NCI-H3122, 48 h
[21] = test system: WI-38; experiment: Radioprotective activity against human WI-38 cells assessed as recovery of radiation-induced decrease in TrxR activity at 10 uM pretreated for 24 hrs followed by irradiation with gamma radiation for 24 hrs; format: functional, cell-based; conditions: time 48.0 hrs
[22] = test system: GR; experiment: Reduction in intracellular activity of GR in human WI-38 cells at 150 uM incubated for 24 hrs relative to control; format: toxicity, cell-based
[23] = Cytotoxicity against human MCF-10A cells assessed as inhibition of cell proliferation incubated for 48 hrs by MTT assay; format: toxicity, cell-based
[24] = Increase in GPx activity in human WI-38 cells at 10 uM incubated for 24 hrs relative to control; format: functional
[25] = Drug reactivity with Hypochlorous acid (HOCl) assessed as rate constant by CBA based competition assay; format: physicochemical
[26] = Cytotoxicity against human WI-26 AV4 cells assessed as inhibition of cell proliferation incubated for 48 hrs by MTT assay; format: toxicity, cell-based
[27] = Therapeutic index, ratio of IC50 for cytotoxicity against human WI-26 AV4 cells to IC50 for antiproliferative activity against human NCI-H3122 cells by MTT assay; format: toxicity, cell-based; conditions: WI-26 AV4 cells versus NCI-H3122 cells, read-out: Ratio IC50
[28] = test system: A549; experiment: Radiosensitization activity against human A549 cells assessed as potentiation of radiation-induced cytotoxicity by measuring dose modification factor at 0.5 uM pre-irradiated with gamma radiation at 4.5 Gy followed by incubation with drug and measured after 7 days by clonogenic assay relative to control; format: functional; conditions: time 7 day
[29] = Therapeutic index, ratio of IC50 for cytotoxicity against human MCF-10A cells to IC50 for antiproliferative activity against human NCI-H3122 cells by MTT assay; format: toxicity, cell-based; conditions: MCF-10A cells versus NCI-H3122 cells, read-out: Ratio IC50
[30] = Drug reactivity with H2O2 assessed as rate constant by absorbance based analysis; format: physicochemical
[31] = Therapeutic index, ratio of IC50 for cytotoxicity against human Intestine 407 cells to IC50 for antiproliferative activity against human NCI-H1975 cells by MTT assay; format: toxicity, cell-based; conditions: Intestine 407 cells versus NCI-H1975 cells, read-out: Ratio IC50
[32] = test system: WI-38; experiment: Radioprotective activity against human WI-38 cells assessed as inhibition of radiation-induced cytotoxicity by measuring dose modification factor at 0.5 uM incubated for 24 hrs followed by irradiation with gamma radiation at 2 to 12 Gy by clonogenic assay relative to control; format: functional
[33] = Therapeutic index, ratio of IC50 for cytotoxicity against human WI-38 cells to IC50 for antiproliferative activity against human NCI-H3122 cells by MTT assay; format: toxicity, cell-based; conditions: WI-38 cells versus NCI-H3122 cells, read-out: Ratio IC50
[34] = Therapeutic index, ratio of IC50 for cytotoxicity against human WI-26 AV4 cells to IC50 for antiproliferative activity against human A549 cells by MTT assay; format: toxicity, cell-based; conditions: WI-26 AV4 cells versus A549 cells, read-out: Ratio IC50
[35] = Drug reduction in DMSO-d6 in presence of 1 equiv. NAC by 77Se NMR spectroscopy; format: physicochemical
[36] = test system: A549; experiment: Antiproliferative activity against human A549 cells assessed as inhibition of cell proliferation incubated for 48 hrs by MTT assay; format: functional, cell-based; conditions: A549, 48 h
[37] = Therapeutic index, ratio of IC50 for cytotoxicity against human Intestine 407 cells to IC50 for antiproliferative activity against human NCI-H3122 cells by MTT assay; format: toxicity, cell-based; conditions: Intestine 407 cells versus NCI-H3122 cells, read-out: Ratio IC50
[38] = test system: A549; experiment: Radiosensitization activity against human A549 cells assessed as potentiation of radiation-induced cytotoxicity by measuring dose modification factor at 0.5 uM pre-irradiated with gamma radiation at 4 Gy followed by incubation with drug and measured after 7 days by clonogenic assay relative to control; format: functional; conditions: time 7 day

| Structure (SMILES) | selectivity ratio [1] | fold change (FC) [2] | IC50 at 48 h [3] | selectivity ratio [4] | inhibition at 24 h, 150 µM [5] | IC50 at 48 h [6] | IC50 [7] | IC50 [8] | fold change (FC) [10] | selectivity ratio [11] | K [12] | IC50 [13] | fold change (FC) [14] | selectivity ratio [15] | selectivity ratio [17] | fold change (FC) [18] | selectivity ratio [19] | IC50 [20] | inhibition at 24 h, 150 µM [22] | IC50 at 48 h [23] | also measured |
| --- | --- | --- | --- | --- | --- | --- | --- | --- | --- | --- | --- | --- | --- | --- | --- | --- | --- | --- | --- | --- | --- |
| O=C(O)CC[Se][Se]CCC(=O)O | 11.2 | ~2 | 483 µM | 5.7 | 24% | 171 µM | 1200 nM | 10.6 µM | ~6.06 | 14.2 | 1 10^8/M/s | 17.9 µM | ~1.73 | 16.1 | 4 | ~4.02 | 31.7 | 21.5 µM | 32% | 61.2 µM | Activity [9]: Active; Activity ([9]; tested as the 2H-labelled form): Active; Activity [16]: inactive; Activity ([16]; tested as the 2H-labelled form): inactive; Activity [21]: Active; Activity ([21]; tested as the 2H-labelled form): Active; fold change (FC) [24]: ~1.34; K [25]: 1.6 10^5/M/s; IC50 at 48 h [26]: 151 µM; selectivity ratio [27]: 7; Ratio [28]: 0.87; selectivity ratio [29]: 2.8; K [30]: 5.2 10^-2/M/s; selectivity ratio [31]: 32.5; Ratio [32]: 1.12; selectivity ratio [33]: 7.9; selectivity ratio [34]: 9.9; Drug metabolism [35]: Metabolite_Notdetected; IC50 [36]: 15.2 µM; selectivity ratio [37]: 3.2 |
| [2H]C([2H])([Se][Se]C([2H])([2H])C([2H])([2H])C(=O)O)C([2H])([2H])C(=O)O | 65.7 | ~1.71 | 507 µM | 45.5 | 8% | 1000 µM | 900 nM | 4.6 µM | ~5.17 | 120 | 0.8 10^8/M/s | 35.5 µM | ~1.69 | 217 | 9.8 | ~2.04 | 33.3 | 46.5 µM | 13% | 150 µM | Ratio [38]: 0.83; fold change (FC) [24]: ~1.53; K [25]: 9.5 10^4/M/s; IC50 at 48 h [26]: 550 µM; selectivity ratio [27]: 11.8; selectivity ratio [29]: 22.4; K [30]: 3.3 10^-2/M/s; selectivity ratio [31]: 110; Ratio [32]: 1.16; selectivity ratio [33]: 21.5; selectivity ratio [34]: 36.2; IC50 [36]: 15.2 µM; selectivity ratio [37]: 10.8 |
